For orientation: inhibition means how much of the control response was suppressed. Usually residual activity stands for the signal under treatment as a percentage of the control signal.

The values below come from ChEMBL document CHEMBL1157898 (Bioorg Med Chem Lett, 2010).

Activity calls are given as the source filed them. No cut-off for these calls is given here.

The target in test [1] is T1, Gamma-secretase (Homo sapiens) (UniProt Q96BI3+Q9NZ42+Q8WW43+P49768+Q92542+P49810). Briefly: Inhibition of gamma secretase in HEK293 cells assessed as amyloid beta secretion. It counts as cell-based.
The target in test [2] is T1, Gamma-secretase (Homo sapiens). Description: Inhibition of gamma secretase in HEK293 cells assessed as amyloid beta 40 secretion at 50 uM. It counts as cell-based.
The target is the same in test [3]. Description: Inhibition of gamma secretase in HEK293 cells assessed as amyloid beta 38 secretion at 50 uM. It counts as cell-based.
For test [4] the target is unchanged. Briefly: Inhibition of gamma secretase in HEK293 cells assessed as amyloid beta 42 secretion at 50 uM. It counts as cell-based.
Test [5] has the same target. Description: Inhibition of gamma secretase in HEK293 cells assessed as amyloid beta secretion at 150 uM. It counts as cell-based.
The target is the same in test [6]. Description: Inhibition of gamma secretase in HEK293 cells assessed as amyloid beta secretion at 250 uM. It counts as cell-based.
For test [7], the system named is N2a. Description: Inhibition of gamma secretase mediated amyloid beta 40 secretion in mouse N2a cells overexpressing CK1epsilon-271 within 5- to 50 uM after 3hr. It counts as cell-based.
Test [8] relates to N2a. Briefly: Inhibition of gamma secretase mediated amyloid beta 42 secretion in mouse N2a cells overexpressing CK1epsilon-271 within 5- to 50 uM after 3hr. It counts as cell-based.
For test [9], the target named is RAC-alpha serine/threonine-protein kinase (Homo sapiens) (UniProt P31749). Briefly: Inhibition of AKT1.
Test [10] is described as follows: Inhibition of AMPK.
For test [11], the target named is Tyrosine-protein kinase BTK (Homo sapiens) (UniProt Q06187). Briefly: Inhibition of BTK.
Test [12] can be described thus: Inhibition of CAMK2.
Test [13] deals with T2, Calcium/calmodulin-dependent protein kinase type IV (Homo sapiens) (UniProt Q16566).
T2 sequence (whole entry): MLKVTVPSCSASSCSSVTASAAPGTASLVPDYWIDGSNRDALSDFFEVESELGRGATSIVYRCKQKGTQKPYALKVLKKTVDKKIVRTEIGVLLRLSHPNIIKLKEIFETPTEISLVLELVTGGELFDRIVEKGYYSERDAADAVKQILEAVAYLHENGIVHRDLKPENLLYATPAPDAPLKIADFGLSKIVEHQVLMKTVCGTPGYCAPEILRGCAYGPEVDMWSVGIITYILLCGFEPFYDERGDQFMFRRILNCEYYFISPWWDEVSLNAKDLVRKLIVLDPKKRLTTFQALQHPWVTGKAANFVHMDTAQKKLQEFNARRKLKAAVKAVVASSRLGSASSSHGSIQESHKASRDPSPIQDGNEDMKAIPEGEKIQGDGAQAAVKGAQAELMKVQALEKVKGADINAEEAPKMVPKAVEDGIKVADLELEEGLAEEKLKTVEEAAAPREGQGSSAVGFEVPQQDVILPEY
Description: Inhibition of CAMK4.

The target of test [14] is Dual specificity tyrosine-phosphorylation-regulated kinase 1A (Homo sapiens) (UniProt Q13627). Description: Inhibition of DYRK1A.
Test [15] concerns the target Fibroblast growth factor receptor 1 (Homo sapiens) (UniProt P11362). Briefly: Inhibition of FGFR1.
In test [16] the target is Casein kinase I isoform delta (Homo sapiens) (UniProt P48730). Briefly: Inhibition of casein kinase delta at 10 uM; values are per cent of control.
Test [17] shares this target. Description: Inhibition of CK1delta.
Test [18] deals with T1, Gamma-secretase (Homo sapiens). Description: Inhibition of gamma secretase mediated amyloid beta 38 generation in human H4 cells at 5 uM by LPECL assay; values are per cent of control.
The target is the same in test [19]. Briefly: Inhibition of gamma secretase mediated amyloid beta 40 generation in human H4 cells at 5 uM by LPECL assay; values are per cent of control.
For test [20] the target is unchanged. Description: Inhibition of gamma secretase mediated amyloid beta 42 generation in human H4 cells at 5 uM by LPECL assay; values are per cent of control.

Sequence of RAC-alpha serine/threonine-protein kinase (Homo sapiens) (P31749 whole entry): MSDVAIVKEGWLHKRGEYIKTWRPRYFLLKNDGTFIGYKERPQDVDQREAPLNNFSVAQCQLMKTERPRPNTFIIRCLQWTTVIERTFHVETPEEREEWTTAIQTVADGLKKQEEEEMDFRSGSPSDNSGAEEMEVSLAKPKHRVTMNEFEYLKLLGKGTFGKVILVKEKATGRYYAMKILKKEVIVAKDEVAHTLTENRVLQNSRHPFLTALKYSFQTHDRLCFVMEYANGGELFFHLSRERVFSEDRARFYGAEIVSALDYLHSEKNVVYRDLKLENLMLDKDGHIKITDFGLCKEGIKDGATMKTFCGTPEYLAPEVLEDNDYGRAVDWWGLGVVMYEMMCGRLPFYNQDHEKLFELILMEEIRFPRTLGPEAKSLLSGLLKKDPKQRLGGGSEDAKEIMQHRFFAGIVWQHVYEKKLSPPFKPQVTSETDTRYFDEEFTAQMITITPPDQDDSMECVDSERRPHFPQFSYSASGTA
Sequence of Casein kinase I isoform delta (Homo sapiens) (P48730 whole entry, looked up, canonical isoform): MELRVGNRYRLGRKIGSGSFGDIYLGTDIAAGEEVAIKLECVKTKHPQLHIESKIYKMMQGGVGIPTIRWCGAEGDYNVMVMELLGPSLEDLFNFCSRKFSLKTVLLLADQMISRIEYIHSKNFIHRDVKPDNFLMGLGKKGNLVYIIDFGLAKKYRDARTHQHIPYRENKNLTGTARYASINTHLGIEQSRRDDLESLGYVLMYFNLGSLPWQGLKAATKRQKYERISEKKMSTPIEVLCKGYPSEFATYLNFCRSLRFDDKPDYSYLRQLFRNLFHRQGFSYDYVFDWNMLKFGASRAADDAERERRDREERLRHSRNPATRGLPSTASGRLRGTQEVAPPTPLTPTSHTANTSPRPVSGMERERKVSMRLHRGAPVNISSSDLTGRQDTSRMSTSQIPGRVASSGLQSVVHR
Sequence of Fibroblast growth factor receptor 1 (Homo sapiens) (P11362 22-822 limits assumed): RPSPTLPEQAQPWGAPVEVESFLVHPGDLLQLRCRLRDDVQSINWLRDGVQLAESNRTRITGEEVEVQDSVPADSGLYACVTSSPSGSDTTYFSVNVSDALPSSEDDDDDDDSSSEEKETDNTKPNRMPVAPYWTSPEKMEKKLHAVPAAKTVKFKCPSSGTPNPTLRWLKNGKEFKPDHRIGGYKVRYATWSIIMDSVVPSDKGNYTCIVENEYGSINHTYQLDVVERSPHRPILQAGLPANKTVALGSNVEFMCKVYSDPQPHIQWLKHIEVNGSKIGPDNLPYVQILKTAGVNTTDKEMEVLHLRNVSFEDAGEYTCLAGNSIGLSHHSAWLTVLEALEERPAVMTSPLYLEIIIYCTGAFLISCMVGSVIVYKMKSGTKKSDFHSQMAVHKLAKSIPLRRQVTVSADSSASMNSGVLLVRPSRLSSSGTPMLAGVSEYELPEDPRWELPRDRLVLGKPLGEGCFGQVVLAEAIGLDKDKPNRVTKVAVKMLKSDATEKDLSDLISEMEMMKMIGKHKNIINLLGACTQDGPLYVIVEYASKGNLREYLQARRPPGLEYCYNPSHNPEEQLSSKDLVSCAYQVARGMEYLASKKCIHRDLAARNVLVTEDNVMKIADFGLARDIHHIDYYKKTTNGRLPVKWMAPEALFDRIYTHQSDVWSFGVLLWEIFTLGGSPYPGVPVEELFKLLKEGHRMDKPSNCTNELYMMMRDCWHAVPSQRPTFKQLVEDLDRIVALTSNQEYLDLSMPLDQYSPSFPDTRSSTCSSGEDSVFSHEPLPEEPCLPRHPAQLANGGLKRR
Sequence of Tyrosine-protein kinase BTK (Homo sapiens) (Q06187 whole entry): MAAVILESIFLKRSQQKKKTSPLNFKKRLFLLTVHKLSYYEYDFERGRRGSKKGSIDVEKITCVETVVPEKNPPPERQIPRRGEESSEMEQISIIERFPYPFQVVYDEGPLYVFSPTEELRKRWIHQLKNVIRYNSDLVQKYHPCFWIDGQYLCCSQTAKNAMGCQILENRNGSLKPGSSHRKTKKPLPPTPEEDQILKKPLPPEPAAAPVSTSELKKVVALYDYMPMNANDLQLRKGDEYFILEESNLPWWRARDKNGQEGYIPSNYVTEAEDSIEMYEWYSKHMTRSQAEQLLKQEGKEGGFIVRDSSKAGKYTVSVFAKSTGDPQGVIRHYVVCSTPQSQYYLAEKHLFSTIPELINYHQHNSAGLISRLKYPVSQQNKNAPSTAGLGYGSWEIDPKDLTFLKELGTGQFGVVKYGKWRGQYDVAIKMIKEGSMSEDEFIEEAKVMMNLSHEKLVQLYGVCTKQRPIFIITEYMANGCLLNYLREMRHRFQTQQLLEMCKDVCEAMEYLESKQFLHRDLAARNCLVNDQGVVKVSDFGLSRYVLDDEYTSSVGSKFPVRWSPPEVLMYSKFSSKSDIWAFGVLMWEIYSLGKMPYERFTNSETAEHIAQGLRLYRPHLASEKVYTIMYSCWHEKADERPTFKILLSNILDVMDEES

As for `CCN(CC)CCNC(=O)c1c(C)[nH]c(/C=C2\C(=O)Nc3ccc(F)cc32)c1C` [SUNITINIB], in test [1], the outcome was inactive.
In the case of `COc1cc(OC)c(C=C2C(=O)Nc3ccccc32)c(OC)c1`, the inhibition entry in test [2], in [3], in [4], in [5], in test [9] and in [10] was “inactive” each time. The inhibition result in test [11], in test [12], in [13], in test [14] and in [15] was “inactive” in each case. In test [6], the inhibition result is “Active”. Besides, the inhibition with N2a [7] worked out at 68%; in the test with N2a [8], 61%. Moreover, in [16], the residual activity stood at 19%.
Turning to `COc1cc(OC)c(/C=C2/C(=O)Nc3ccc(Cl)cc32)c(OC)c1`, the inhibition in test [9] (concentration not given here), in [10] (concentration not given here), in test [11] (concentration not given here), in test [12] (concentration not given here), in test [13] (concentration not given here) and in test [17] (concentration not given here) was less than 20% each time. The inhibition in test [14] (concentration not given here) and in [15] (concentration not given here) was less than 20% in each case. In addition, in test [16], the residual activity was 87%.
For `COc1ccc(/C=C2/C(=O)Nc3ccc(Cl)cc32)c(OC)c1OC`, the inhibition entry in test [9], in test [10], in test [11], in test [12], in test [13] and in [17] was “inactive” in each case. Moreover, the inhibition entry in test [14] and in [15] was “inactive” each time. Further, in [16], the residual activity is 99%.
For the compound `O=C1Nc2ccc(Cl)cc2/C1=C\c1cc(F)cc(F)c1`, the residual activity in test [18] worked out at 81%; in [19], 106%; in [20], 112%.
